According to patent publication US7105521B2, “Eugenosedin-A based pharmacoligical agents” (Syn-Tech Chem & Pharm Co., Ltd., priority 2003, dated 2006):

Test: Intravenous injection: BP and HR in pentobarbital-anesthetized rats
Format: in vivo, Wistar rats
Procedure: Intravenous injection. The experiments were carried out as previously described (Wu B N. et al., Biochem. Pharmacol., 48:101–109, 1994). In brief, Wistar rats weighing 250–300 grams were anesthetized with pentobarbital sodium (50 mg kg^−1, i.p.). Following tracheal cannulation, systemic arterial BP and HR were recorded from the femoral artery by a pressure transducer (model P10EZ; Spectramed, Oxnard, Calif., U.S.A.) connected to a recorder (GOULD, Valley View, Ohio, Model P50). Body temperature was maintained at 37° C. by an electric heating pad. A femoral vein was cannulated for intravenous injection of drugs and LPS (10 mg kg^−1).

[1] = i.v., pentobarbital-anesthetized rats

## CC=Cc1ccc(OCC(O)CN2CCN(c3ccccc3Cl)CC2)c(OC)c1 (stereo not shown) [eugenosedin-A]
0.1, 0.5, 1.0 mg kg^−1 i.v., pentobarbital-anesthetized Wistar rats
  effect on arterial blood pressure after acute intravenous injection: mild arterial hypotension
i.v., pentobarbital-anesthetized Wistar rats
  depressor effect compared with trazodone and ketanserin: less than that of trazodone and ketanserin
[1]
  mean BP and HR after intravenous administration: dose-dependent decrease in mean BP and HR
  phenylephrine- and isoprenaline-induced changes in BP and HR: inhibited phenylephrine- and isoprenaline-induced changes in BP and HR
